| Structure (SMILES) | melting point [°C] |
| --- | --- |
| COc1ccc(/C=N/Nc2cc3c(cc2F)c(=O)c(C(=O)O)cn3-c2ccc(N)cc2F)cc1 [Compound 10, 1-(4-amino-2-fluorophenyl)-6-fluoro-7-[2-(4-methoxybenzylidene)hydrazinyl]-4-oxo-1,4-dihydroquinoline-3-carboxylic acid] | 321 to 322 |
| Nc1ccc(-n2cc(C(=O)O)c(=O)c3cc(F)c(N/N=C/c4ccncc4)cc32)c(F)c1 [Compound 11, 1-(4-amino-2-fluorophenyl)-6-fluoro-4-oxo-7-[2-(pyridin-4-ylmethylene)hydrazinyl]-1,4-dihydroquinoline-3-carboxylic acid] | 176 to 178 |
| COc1ccc(/C=N/Nc2cc3c(cc2F)c(=O)c(C(=O)O)cn3-c2ccc(N)cc2)cc1 [Compound 9, 1-(4-aminophenyl)-6-fluoro-7-(2-(4-methoxybenzylidene)hydrazinyl)-4-oxo-1,4-dihydroquinoline-3-carboxylic acid] | 307 to 309 |
| Nc1ccc(-n2cc(C(=O)O)c(=O)c3cc(F)c(N/N=C/c4ccccc4)cc32)cc1 [Compound 7, 1-(4-aminophenyl)-7-(2-benzylidenehydrazinyl)-6-fluoro-4-oxo-1,4-dihydroquinoline-3-carboxylic acid] | 314 to 316 |
| Nc1ccc(-n2cc(C(=O)O)c(=O)c3cc(F)c(N/N=C/c4ccc(F)cc4)cc32)cc1 [Compound 8, 1-(4-aminophenyl)-6-fluoro-7-[2-(4-fluorobenzylidene)hydrazinyl]-4-oxo-1,4-dihydroquinoline-3-carboxylic acid] | 308 to 310 |

— patent US8552029B2, “Quinoline derivatives and uses of the same” (National Taipei University of Technology, priority 2011, dated 2013)
